Reference: ChEMBL document CHEMBL5257047, “Synthesis and Anti-Inflammatory Activity of the Natural Cyclooxygenase-2 Inhibitor Axinelline A and Its Analogues” (J Nat Prod, 2023)
Active and inactive are the calls of the source. No cut-off for these calls is given here.

Tests used:
[1] = target: T1, Prostaglandin G/H synthase 1 (Ovis aries) (UniProt P05979); assay: Inhibition of ovine COX-1 using arachidonic acid as substrate at 10 uM preincubated with compound for 5 mins followed by substrate addition and measured after 2 mins by fluorescence spectrum analysis; details: time 7.0 min
T1 sequence (whole entry): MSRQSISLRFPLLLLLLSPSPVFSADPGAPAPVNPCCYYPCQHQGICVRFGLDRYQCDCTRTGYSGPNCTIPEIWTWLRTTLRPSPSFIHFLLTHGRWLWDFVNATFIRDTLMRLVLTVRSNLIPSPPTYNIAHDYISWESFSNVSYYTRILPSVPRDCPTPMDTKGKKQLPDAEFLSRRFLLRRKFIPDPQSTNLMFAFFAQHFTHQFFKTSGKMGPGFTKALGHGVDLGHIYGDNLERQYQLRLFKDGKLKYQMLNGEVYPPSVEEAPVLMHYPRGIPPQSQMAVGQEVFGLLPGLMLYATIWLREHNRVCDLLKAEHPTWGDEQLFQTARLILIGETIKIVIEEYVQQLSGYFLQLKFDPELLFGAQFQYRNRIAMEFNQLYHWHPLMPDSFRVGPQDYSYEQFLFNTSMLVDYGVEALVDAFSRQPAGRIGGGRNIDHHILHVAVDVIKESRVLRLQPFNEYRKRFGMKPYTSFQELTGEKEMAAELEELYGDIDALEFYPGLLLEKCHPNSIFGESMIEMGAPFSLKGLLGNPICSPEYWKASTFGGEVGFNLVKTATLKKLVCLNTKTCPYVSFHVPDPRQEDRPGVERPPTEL

[2] = target: T2, Prostaglandin G/H synthase 2 (Homo sapiens) (UniProt P35354); assay: Inhibition of recombinant human COX-2 using arachidonic acid as substrate at 10 uM preincubated with compound for 5 mins followed by substrate addition and measured after 2 mins by fluorescence spectrum analysis; details: time 7.0 min
T2 sequence (whole entry): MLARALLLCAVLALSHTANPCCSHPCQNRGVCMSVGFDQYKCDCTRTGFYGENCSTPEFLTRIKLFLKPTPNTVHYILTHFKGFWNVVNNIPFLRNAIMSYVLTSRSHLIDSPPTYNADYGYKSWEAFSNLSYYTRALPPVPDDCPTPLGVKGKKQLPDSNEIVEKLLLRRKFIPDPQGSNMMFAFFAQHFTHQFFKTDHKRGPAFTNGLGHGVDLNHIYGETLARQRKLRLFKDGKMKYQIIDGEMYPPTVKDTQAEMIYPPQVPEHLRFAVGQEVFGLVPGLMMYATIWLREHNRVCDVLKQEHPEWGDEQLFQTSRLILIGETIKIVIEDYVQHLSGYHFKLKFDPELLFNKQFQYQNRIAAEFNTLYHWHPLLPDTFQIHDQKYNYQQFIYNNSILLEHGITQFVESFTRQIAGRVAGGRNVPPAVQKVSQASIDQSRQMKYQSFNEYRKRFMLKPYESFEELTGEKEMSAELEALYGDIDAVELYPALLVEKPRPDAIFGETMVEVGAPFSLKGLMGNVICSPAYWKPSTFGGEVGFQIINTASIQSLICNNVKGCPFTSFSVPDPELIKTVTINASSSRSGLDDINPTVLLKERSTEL

[3] = target: T3, Prostaglandin G/H synthase 2 (Ovis aries, UniProt P79208); assay: Inhibition of ovine COX-2 assessed as reduction in PGF2alpha production by enzyme immunoassay
T3 sequence (P79208 whole entry): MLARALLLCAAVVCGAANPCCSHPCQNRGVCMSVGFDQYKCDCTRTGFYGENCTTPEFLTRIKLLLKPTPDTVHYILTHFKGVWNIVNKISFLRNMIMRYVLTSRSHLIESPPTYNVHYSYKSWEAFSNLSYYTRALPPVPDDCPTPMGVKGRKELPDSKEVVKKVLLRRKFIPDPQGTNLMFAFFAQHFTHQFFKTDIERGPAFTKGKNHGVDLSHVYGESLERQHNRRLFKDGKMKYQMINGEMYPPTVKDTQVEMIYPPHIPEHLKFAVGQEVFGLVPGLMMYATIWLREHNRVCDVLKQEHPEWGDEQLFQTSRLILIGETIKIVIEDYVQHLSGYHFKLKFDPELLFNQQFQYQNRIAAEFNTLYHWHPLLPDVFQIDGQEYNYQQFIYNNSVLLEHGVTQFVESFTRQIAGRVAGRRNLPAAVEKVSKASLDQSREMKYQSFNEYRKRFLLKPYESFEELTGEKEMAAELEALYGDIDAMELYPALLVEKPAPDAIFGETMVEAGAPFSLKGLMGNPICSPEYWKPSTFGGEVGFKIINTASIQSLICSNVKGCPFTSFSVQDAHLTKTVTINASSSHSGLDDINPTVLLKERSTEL

[4] = target: T4, Prostaglandin G/H synthase 1 (Ovis aries, UniProt P05979); assay: Inhibition of ovine COX-1 using arachidonic acid as substrate preincubated with compound for 5 mins followed by substrate addition and measured after 2 mins by fluorescence spectrum analysis
T4 sequence (P05979 whole entry): T1 sequence (whole entry)

[5] = target: T5, Prostaglandin G/H synthase 2 (Homo sapiens, UniProt P35354); assay: Inhibition of recombinant human COX-2 using arachidonic acid as substrate preincubated with compound for 5 mins followed by substrate addition and measured after 2 mins by fluorescence spectrum analysis
T5 sequence (P35354 whole entry): T2 sequence (whole entry)

[6] = tested on: RAW264.7; assay: Cytotoxicity against mouse RAW264.7 cells assessed as reduction in cell survival at 10 uM incubated for 24 hrs by MTT assay; type: toxicity, cell-based; details: raw264.7, 24 h
[7] = tested on: L02; assay: Cytotoxicity against human L02 cells assessed as reduction in cell survival at 10 uM incubated for 24 hrs by MTT assay; type: toxicity, cell-based; details: l02, 24 h
[8] = tested on: L929; assay: Cytotoxicity against mouse L929 cells assessed as reduction in cell survival at 10 uM incubated for 24 hrs by MTT assay; type: toxicity, cell-based; details: l929, 24 h
[9] = tested on: RAW264.7; assay: Cytotoxicity against mouse RAW264.7 cells assessed as reduction in cell survival upto 50 uM incubated for 48 to 72 hrs by MTT assay; type: toxicity, cell-based; details: raw264.7, 50 µM, time 48-72 hrs
[10] = tested on: L02; assay: Cytotoxicity against human L02 cells assessed as reduction in cell survival upto 50 uM incubated for 48 to 72 hrs by MTT assay; type: toxicity, cell-based; details: l02, 50 µM, time 48-72 hrs
[11] = tested on: L929; assay: Cytotoxicity against mouse L929 cells assessed as reduction in cell survival upto 50 uM incubated for 48 to 72 hrs by MTT assay; type: toxicity, cell-based; details: l929, 50 µM, time 48-72 hrs
[12] = tested on: RAW264.7; assay: Anti-inflammatory activity in mouse RAW264.7 cells assessed as decrease in LPS-induced iNOS protein expression incubated for 24 hrs by Western blot analysis; type: functional, cell-based; details: dose 2-10 µM
[13] = tested on: RAW264.7; assay: Anti-inflammatory activity in mouse RAW264.7 cells assessed as decrease in LPS-induced COX-2 protein expression incubated for 24 hrs by Western blot analysis; type: functional, cell-based; details: dose 2-10 µM
[14] = tested on: RAW264.7; assay: Anti-inflammatory activity in mouse RAW264.7 cells assessed as decrease in LPS-induced NO production incubated for 24 hrs by Griess reagent based assay; type: functional, cell-based; details: dose 2-30 µM
[15] = tested on: RAW264.7; assay: Anti-inflammatory activity in mouse RAW264.7 cells assessed as decrease in LPS-induced TNF-alpha production incubated for 24 hrs by ELISA analysis; type: functional, cell-based; details: dose 2-30 µM
[16] = tested on: RAW264.7; assay: Anti-inflammatory activity in mouse RAW264.7 cells assessed as decrease in LPS-induced IL-6 production incubated for 24 hrs by ELISA analysis; type: functional, cell-based; details: dose 2-30 µM
[17] = tested on: RAW264.7; assay: Anti-inflammatory activity in mouse RAW264.7 cells assessed as decrease in LPS-induced IL-1beta production incubated for 24 hrs by ELISA analysis; type: functional, cell-based; details: dose 2-30 µM
[18] = target: T6, Prostaglandin G/H synthase 2 (Mus musculus) (UniProt Q05769); assay: Inhibition of COX-2 in mouse RAW264.7 cells assessed as suppression of LPS-induced PGE2 production at 2 to 30 uM incubated for 24 hrs by ELISA analysis; type: cell-based; details: dose 2-30 µM
T6 sequence (whole entry): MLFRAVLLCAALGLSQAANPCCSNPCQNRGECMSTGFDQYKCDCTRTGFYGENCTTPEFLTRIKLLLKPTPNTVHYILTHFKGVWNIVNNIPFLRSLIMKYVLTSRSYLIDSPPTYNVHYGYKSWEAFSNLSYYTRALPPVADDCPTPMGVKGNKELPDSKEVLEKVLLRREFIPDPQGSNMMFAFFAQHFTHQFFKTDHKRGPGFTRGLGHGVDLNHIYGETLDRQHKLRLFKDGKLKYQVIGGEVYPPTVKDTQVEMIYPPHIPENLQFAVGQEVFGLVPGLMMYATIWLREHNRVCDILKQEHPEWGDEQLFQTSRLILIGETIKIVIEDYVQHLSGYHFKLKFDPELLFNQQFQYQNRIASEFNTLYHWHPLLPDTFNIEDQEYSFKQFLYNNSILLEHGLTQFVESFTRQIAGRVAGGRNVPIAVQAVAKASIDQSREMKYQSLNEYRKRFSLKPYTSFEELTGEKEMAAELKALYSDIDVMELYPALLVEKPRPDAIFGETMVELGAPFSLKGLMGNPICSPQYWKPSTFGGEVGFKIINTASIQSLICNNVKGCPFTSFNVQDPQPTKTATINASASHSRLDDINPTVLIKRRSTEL

[19] = tested on: RAW264.7; assay: Inhibition of NF-kappaB phosphorylation in LPS-stimulated mouse RAW264.7 cells at 2 to 30 uM preincubated with compound for 1 hrs followed by LPS-stimulation and measured after 30 mins by Western blot analysis; type: cell-based; details: dose 2-30 µM, time 1.5 hrs
[20] = tested on: RAW264.7; assay: Effect of NF-kappaB protein level in LPS-stimulated mouse RAW264.7 cells at 2 to 30 uM preincubated with compound for 1 hrs followed by LPS-stimulation and measured after 30 mins by Western blot analysis; type: functional, cell-based; details: dose 2-30 µM, time 1.5 hrs
[21] = tested on: RAW264.7; assay: Inhibition of IKK phosphorylation in LPS-stimulated mouse RAW264.7 cells preincubated with compound for 1 hrs followed by LPS-stimulation and measured after 30 mins by Western blot analysis; type: cell-based; details: dose 2-30 µM, time 1.5 hrs
[22] = target: T7, NF-kappa-B inhibitor alpha (Mus musculus) (UniProt Q9Z1E3); assay: Inhibition of IkappaBalpha phosphorylation in LPS-stimulated mouse RAW264.7 cells preincubated with compound for 1 hrs followed by LPS-stimulation and measured after 30 mins by Western blot analysis; type: cell-based; details: dose 2-30 µM, time 1.5 hrs
T7 sequence (whole entry): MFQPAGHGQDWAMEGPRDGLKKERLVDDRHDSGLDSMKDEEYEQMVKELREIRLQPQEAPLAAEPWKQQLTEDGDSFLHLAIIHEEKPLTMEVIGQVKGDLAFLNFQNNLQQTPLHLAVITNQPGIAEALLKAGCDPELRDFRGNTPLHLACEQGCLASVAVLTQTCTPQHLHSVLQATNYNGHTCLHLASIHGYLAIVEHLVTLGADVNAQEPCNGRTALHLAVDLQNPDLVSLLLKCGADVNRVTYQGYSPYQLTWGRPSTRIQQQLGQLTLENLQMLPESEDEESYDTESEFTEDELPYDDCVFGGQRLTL

## CCOC(=O)[C@H](CO)NC(=O)c1cccc(O)c1
[1]
  inhibition: Active
[2]
  inhibition: Active

## CCOC(=O)[C@H](CO)NC(=O)c1ccccc1
[1]
  inhibition: Active
[2]
  inhibition: Active

## CCOC(=O)[C@H](CO)NC(=O)c1ccccc1O
[1]
  inhibition: Active
[2]
  inhibition: Active

## CCOC(=O)[C@H](CO)NC(=O)c1ccc(O)cc1
[1]
  inhibition: Active
[2]
  inhibition: Active

## CCOC(=O)[C@H](CO)NC(=O)c1cccc(O)c1O
[3]
  IC50: 2800 nM
[4]
  IC50: 8890 nM
[5]
  IC50: 2220 nM
[6]
  Activity: Non-Toxic
[7]
  Activity: Non-Toxic
[8]
  Activity: Non-Toxic
[9]
  Activity: Toxic
[10]
  Activity: Toxic
[11]
  Activity: Toxic
[12]
  Activity: Dose-Dependent Effect
[13]
  Activity: Dose-Dependent Effect
[14]
  Activity: Dose-Dependent Effect
[15]
  Activity: Dose-Dependent Effect
[16]
  Activity: Dose-Dependent Effect
[17]
  Activity: Dose-Dependent Effect
[18]
  inhibition: Active
[19]
  inhibition: Active
[20]
  Activity: inactive
[21]
  inhibition: Dose-Dependent Effect
[22]
  inhibition: Dose-Dependent Effect
